In patent US20230024442A1, “BIFUNCTIONAL COMPOUNDS FOR GRADING BTK VIA UBIQUITIN PROTEOSOME PATHWAY” (NURIX THERAPEUTICS, INC., priority 2019, published 2023):

The compounds below were run against T1, BTK (Homo sapiens, UniProt Q06187) (assay: Cellular BTK HTRF Assay (BTK levels in Ramos cells)). Conditions: Ramos cells, 50,000 cells, incubated four hours at 37° C.; BTK levels by Cisbio Total-BTK HTRF relative to DMSO-treated cells.
T1 construct: endogenous in cells; host or cells: Ramos (ATCC CRL-1596)
T1 sequence (Q06187 whole entry): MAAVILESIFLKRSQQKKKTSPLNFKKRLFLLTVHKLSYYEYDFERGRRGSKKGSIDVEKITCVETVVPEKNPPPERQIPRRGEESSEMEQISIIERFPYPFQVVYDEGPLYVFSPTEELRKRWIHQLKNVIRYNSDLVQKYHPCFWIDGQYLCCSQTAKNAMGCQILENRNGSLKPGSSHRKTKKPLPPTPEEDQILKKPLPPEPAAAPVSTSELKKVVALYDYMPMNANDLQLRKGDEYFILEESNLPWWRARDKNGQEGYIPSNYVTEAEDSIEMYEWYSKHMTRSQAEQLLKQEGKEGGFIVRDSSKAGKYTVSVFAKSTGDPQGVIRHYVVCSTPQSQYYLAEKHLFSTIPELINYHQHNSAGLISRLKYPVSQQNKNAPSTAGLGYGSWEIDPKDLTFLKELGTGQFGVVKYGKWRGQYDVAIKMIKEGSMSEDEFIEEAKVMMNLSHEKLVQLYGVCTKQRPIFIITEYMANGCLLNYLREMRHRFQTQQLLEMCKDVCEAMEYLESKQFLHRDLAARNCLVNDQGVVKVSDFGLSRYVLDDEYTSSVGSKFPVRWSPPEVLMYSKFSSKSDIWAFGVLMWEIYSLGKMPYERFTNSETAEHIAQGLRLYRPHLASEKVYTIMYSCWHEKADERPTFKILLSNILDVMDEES
Format: cell-based
Description: Ramos (CRL-1596) cells were obtained from American Type Culture Collection and were grown in RPMI-1640 media (ATCC, 30-2001) supplemented with 10% heat-inactivated FBS (Corning Premium Fetal Bovine Serum from Fisher, MT35015CV).
Compounds of the present invention were added to 50,000 Ramos cells in round-bottom 96 well plates with a final DMSO concentration of […] and were incubated at 37° C. 5% CO2 for four hours. BTK levels were determined using Cisbio Total-BTK HTRF ([…] Time-Resolved Fluorescence) kit (63ADK064PEG) according to manufacturer's protocol. Briefly, cells were incubated in 1× supplied lysis buffer for 30 minutes. In an opaque white low volume 96 well plate (Cisbio, 66PL96005), cell lysate was combined with two different specific BTK antibodies, one conjugated with Eu^3+-Cryptate FRET donor and one conjugated with d2 FRET acceptor. Assay controls include wells containing cell lysate with only the Eu^3+-Cryptate FRET donor antibody and wells containing both HTRF antibodies and lysis buffer without cells or control lysate provided by Cisbio. HTRF ratio was calculated as (acceptor signal at 665 nm/donor signal at 620 nm)×10^4. Background HTRF levels were determined from the control well containing the donor, but no acceptor, antibody. Background HTRF levels were subtracted from all samples. Readouts were reported as HTRF levels relative to HTRF levels of DMSO-treated cells. Four-parameter non-linear regressions were performed in GraphPad Prism 7.02 to obtain DC50 values. DC50 values are provided in Table 7, wherein A<1 nM, 1 nM≤B≤10 nM, and 10 nM<C<1 μM.
`CN[C@@H](C)C(=O)N[C@H](C(=O)N1CCC[C@H]1c1nc(C(=O)c2cccc(OCCOCCOCCOCCC(=O)N3CCn4nc(Nc5cc(-c6ccnc(-n7ncc8cc(C(C)(C)C)cc(F)c8c7=O)c6CO)cn(C)c5=O)cc4C3)c2)cs1)C1CCCCC1` (stereo in doubt) [Compound 7, (S)—N—((S)-2-((S)-2-(4-(3-(2-(2-(2-(3-(2-((2′-(6-(tert-butyl)-8-fluoro-1-oxophthalazin-2(1H)-yl)-3′-(hydroxymethyl)-1-methyl-6-oxo-1,6-dihydro-[3,4′-bipyridin]-5-yl)amino)-6,7-dihydropyrazolo[1,5-a]pyrazin-5(4H)-yl)-3-oxopropoxy)ethoxy)ethoxy)ethoxy)benzoyl)thiazol-2-yl)pyrrolidin-1-yl)-1-cyclohexyl-2-oxoethyl)-2-(methylamino)propanamide] was tested, and the DC50 was 10 to 1000 nM.
`Cn1cc(-c2ccnc(-n3ncc4cc(C(C)(C)C)cc(F)c4c3=O)c2CO)cc(Nc2cc3n(n2)CCN(C(=O)CCOCCNc2cccc4c2C(=O)N(C2CCC(=O)NC2=O)C4=O)C3)c1=O` (centres unmarked) [Compound 1] was tested, and the DC50 was 1 to 10 nM.
Compound `Cn1cc(-c2ccnc(-n3ncc4cc(C(C)(C)C)cc(F)c4c3=O)c2CO)cc(Nc2cc3n(n2)CCN(C(=O)CCOCCCc2cccc4c2CN(C2CCC(=O)NC2=O)C4=O)C3)c1=O` (centres unmarked) [Compound 2] has a DC50 of 10 to 1000 nM.
In the case of `Cn1cc(-c2ccnc(-n3ncc4cc(C(C)(C)C)cc(F)c4c3=O)c2CO)cc(Nc2cc3n(n2)CCN(C(=O)CCOCCOCCOCCNc2cccc4c2C(=O)N(C2CCC(=O)NC2=O)C4=O)C3)c1=O` (centres unmarked) [Compound 3], the DC50 is reported as 1 to 10 nM.
In the case of `CN[C@@H](C)C(=O)N[C@H](C(=O)N1C[C@@H](NC(=O)CCOCCC(=O)N2CCn3nc(Nc4cc(-c5ccnc(-n6ncc7cc(C(C)(C)C)cc(F)c7c6=O)c5CO)cn(C)c4=O)cc3C2)C[C@H]1C(=O)N[C@@H]1CCCc2ccccc21)C1CCCCC1` [Compound 4, (2S,4S)-4-(3-(3-(2-((2′-(6-(tert-butyl)-8-fluoro-1-oxophthalazin-2(1H)-yl)-3′-(hydroxymethyl)-1-methyl-6-oxo-1,6-dihydro-[3,4′-bipyridin]-5-yl)amino)-6,7-dihydropyrazolo[1,5-a]pyrazin-5(4H)-yl)-3-oxopropoxy)propanamido)-1-((S)-2-cyclohexyl-2-((S)-2-(methylamino)propanamido)acetyl)—N—((R)-1,2,3,4-tetrahydronaphthalen-1-yl)pyrrolidine-2-carboxamide], the DC50 is reported as 10 to 1000 nM.
With `CN[C@@H](C)C(=O)N[C@H](C(=O)N1C[C@@H](NC(=O)CCOCCOCCOCCC(=O)N2CCn3nc(Nc4cc(-c5ccnc(-n6ncc7cc(C(C)(C)C)cc(F)c7c6=O)c5CO)cn(C)c4=O)cc3C2)C[C@H]1C(=O)N[C@@H]1CCCc2ccccc21)C1CCCCC1` [Compound 5, (2S,4S)-4-(3-(2-(2-(3-(2-((2′-(6-(tert-butyl)-8-fluoro-1-oxophthalazin-2(1H)-yl)-3′-(hydroxymethyl)-1-methyl-6-oxo-1,6-dihydro-[3,4′-bipyridin]-5-yl)amino)-6,7-dihydropyrazolo[1,5-a]pyrazin-5(4H)-yl)-3-oxopropoxy)ethoxy)ethoxy)propanamido)-1-((S)-2-cyclohexyl-2-((S)-2-(methylamino)propanamido)acetyl)—N—((R)-1,2,3,4-tetrahydronaphthalen-1-yl)pyrrolidine-2-carboxamide] the DC50 was 10 to 1000 nM.
Compound `CN[C@@H](C)C(=O)N[C@H](C(=O)N1CCC[C@H]1c1nc(C(=O)c2cccc(OCCOCCC(=O)N3CCn4nc(Nc5cc(-c6ccnc(-n7ncc8cc(C(C)(C)C)cc(F)c8c7=O)c6CO)cn(C)c5=O)cc4C3)c2)cs1)C1CCCCC1` [Compound 6, (S)—N—((S)-2-((S)-2-(4-(3-(2-(3-(2-((2′-(6-(tert-butyl)-8-fluoro-1-oxophthalazin-2(1H)-yl)-3′-(hydroxymethyl)-1-methyl-6-oxo-1,6-dihydro-[3,4′-bipyridin]-5-yl)amino)-6,7-dihydropyrazolo[1,5-a]pyrazin-5(4H)-yl)-3-oxopropoxy)ethoxy)benzoyl)thiazol-2-yl)pyrrolidin-1-yl)-1-cyclohexyl-2-oxoethyl)-2-(methylamino)propanamide] has a DC50 of 10 to 1000 nM.
`Cn1cc(-c2ccnc(-n3ncc4cc(C(C)(C)C)cc(F)c4c3=O)c2CO)cc(Nc2cc3n(n2)CCN(C(=O)CCCNc2cccc4c2C(=O)N(C2CCC(=O)NC2=O)C4=O)C3)c1=O` (centres unmarked) [Compound 9] showed a DC50 of 1 to 10 nM.
Work on `Cn1cc(-c2ccnc(-n3ncc4cc(C(C)(C)C)cc(F)c4c3=O)c2CO)cc(Nc2cc3n(n2)CCN(C(=O)CCNc2cccc4c2C(=O)N(C2CCC(=O)NC2=O)C4=O)C3)c1=O` (centres unmarked) [Compound 10] yielded a DC50 of 10 to 1000 nM.
`Cn1cc(-c2ccnc(-n3ncc4cc(C(C)(C)C)cc(F)c4c3=O)c2CO)cc(Nc2cc3n(n2)CCN(C(=O)CCCCc2cccc4c2CN(C2CCC(=O)NC2=O)C4=O)C3)c1=O` (centres unmarked) [Compound 11] gave a DC50 of 1 to 10 nM.
In the case of `Cn1cc(-c2ccnc(-n3ncc4cc(C(C)(C)C)cc(F)c4c3=O)c2CO)cc(Nc2cc3n(n2)CCN(C(=O)CNc2cccc4c2C(=O)N(C2CCC(=O)NC2=O)C4=O)C3)c1=O` (centres unmarked) [Compound 12], the DC50 is reported as 1 to 10 nM.
`Cn1cc(-c2ccnc(-n3ncc4cc(C(C)(C)C)cc(F)c4c3=O)c2CO)cc(Nc2cc3n(n2)CCN(C(=O)CCCc2cccc4c2CN(C2CCC(=O)NC2=O)C4=O)C3)c1=O` (centres unmarked) [Compound 13] showed a DC50 of 10 to 1000 nM.
`Cn1cc(-c2ccnc(-n3ncc4cc(C(C)(C)C)cc(F)c4c3=O)c2CO)cc(Nc2cc3n(n2)CCN(C(=O)CN2CCN(CCCc4cccc5c4C(=O)N(C4CCC(=O)NC4=O)C5=O)CC2)C3)c1=O` (centres unmarked) [Compound 14] was tested, and the DC50 was 1 to 10 nM.
`Cn1cc(-c2ccnc(-n3ncc4cc(C(C)(C)C)cc(F)c4c3=O)c2CO)cc(Nc2cc3n(n2)CCN(C(=O)[C@H]2CC[C@H](Nc4cccc5c4C(=O)N(C4CCC(=O)NC4=O)C5=O)CC2)C3)c1=O` (some centres unmarked) [Compound 15] gave a DC50 of 1 to 10 nM.
`Cn1cc(-c2ccnc(-n3ncc4cc(C(C)(C)C)cc(F)c4c3=O)c2CO)cc(Nc2cc3n(n2)CCN(C(=O)CN2CCN(CCCc4cccc5c4CN(C4CCC(=O)NC4=O)C5=O)CC2)C3)c1=O` (centres unmarked) [Compound 16] was tested, and the DC50 was 10 to 1000 nM.
Work on `Cn1cc(-c2ccnc(-n3ncc4cc(C(C)(C)C)cc(F)c4c3=O)c2CO)cc(Nc2cc3n(n2)CCN(C(=O)[C@H]2C[C@@H](OCCCc4cccc5c4CN(C4CCC(=O)NC4=O)C5=O)C2)C3)c1=O` (some centres unmarked) [Compound 17] yielded a DC50 of 10 to 1000 nM.
With `Cn1cc(-c2ccnc(-n3ncc4cc(C(C)(C)C)cc(F)c4c3=O)c2CO)cc(Nc2cc3n(n2)CCN(CCCCc2cccc4c2CN(C2CCC(=O)NC2=O)C4=O)C3)c1=O` (centres unmarked) [Compound 18] the DC50 was 1 to 10 nM.
`Cn1cc(-c2ccnc(-n3ncc4cc(C(C)(C)C)cc(F)c4c3=O)c2CO)cc(Nc2cc3n(n2)CCN(CCCCCCc2cccc4c2CN(C2CCC(=O)NC2=O)C4=O)C3)c1=O` (centres unmarked) [Compound 19] showed a DC50 of 1 to 10 nM.
With `Cn1cc(-c2ccnc(-n3ncc4cc(C(C)(C)C)cc(F)c4c3=O)c2CO)cc(Nc2cc3n(n2)CCN(CCCc2cccc4c2CN(C2CCC(=O)NC2=O)C4=O)C3)c1=O` (centres unmarked) [Compound 20] the DC50 was 1 to 10 nM.
`Cn1cc(-c2ccnc(-n3ncc4cc(C(C)(C)C)cc(F)c4c3=O)c2CO)cc(Nc2cc3n(n2)CCN(C(=O)CCOCCCc2cccc4c2C(=O)N(C2CCC(=O)NC2=O)C4=O)C3)c1=O` (centres unmarked) [Compound 21] showed a DC50 of 10 to 1000 nM.
`Cn1cc(-c2ccnc(-n3ncc4cc(C(C)(C)C)cc(F)c4c3=O)c2CO)cc(Nc2cc3n(n2)CCN(C(=O)CN2CCN(CCc4cccc5c4CN(C4CCC(=O)NC4=O)C5=O)CC2)C3)c1=O` (centres unmarked) [Compound 22] gave a DC50 of 10 to 1000 nM.
In the case of `Cn1cc(-c2ccnc(-n3ncc4cc(C(C)(C)C)cc(F)c4c3=O)c2CO)cc(Nc2cc3n(n2)CCN(C(=O)CCCN2CCN(c4cc5c(cc4F)C(=O)N(C4CCC(=O)NC4=O)C5=O)CC2)C3)c1=O` (centres unmarked) [Compound 23], the DC50 is reported as 1 to 10 nM.
For `Cn1cc(-c2ccnc(-n3ccc4cc(C5CC5)cc(F)c4c3=O)c2CO)cc(Nc2cc3n(n2)CCN(C(=O)CCOCCCc2ccc4c(c2)C(=O)N(C2CCC(=O)NC2=O)C4=O)C3)c1=O` (centres unmarked) [Compound 24], the DC50 was 1 to 10 nM.
In the case of `C[C@H]1CN(C(=O)[C@H]2C[C@@H](OCCNc3cccc4c3C(=O)N(C3CCC(=O)NC3=O)C4=O)C2)CCN1c1ccc(Nc2cc(-c3ccnc(N4CCn5c(cc6c5CC(C)(C)C6)C4=O)c3CO)cn(C)c2=O)nc1` (some centres unmarked) [Compound 25], the DC50 is reported as < 1 nM.
In the case of `C[C@H]1CN(C(=O)CN2CCN(CCc3cccc4c3CN(C3CCC(=O)NC3=O)C4=O)CC2)CCN1c1ccc(Nc2cc(-c3ccnc(N4CCn5c(cc6c5CC(C)(C)C6)C4=O)c3CO)cn(C)c2=O)nc1` (some centres unmarked) [Compound 26], the DC50 is reported as 1 to 10 nM.
`C[C@H]1CN(C(=O)CN2CCN(Cc3cccc4c3CN(C3CCC(=O)NC3=O)C4=O)CC2)CCN1c1ccc(Nc2cc(-c3ccnc(N4CCn5c(cc6c5CC(C)(C)C6)C4=O)c3CO)cn(C)c2=O)nc1` (some centres unmarked) [Compound 27] showed a DC50 of 10 to 1000 nM.
`C[C@H]1CN(C(=O)CCOCCCc2cccc3c2C(=O)N(C2CCC(=O)NC2=O)C3=O)CCN1c1ccc(Nc2cc(-c3ccnc(N4CCn5c(cc6c5CC(C)(C)C6)C4=O)c3CO)cn(C)c2=O)nc1` (some centres unmarked) [Compound 28] showed a DC50 of 1 to 10 nM.
`C[C@H]1CN(C(=O)[C@H]2C[C@H](OCCCc3cccc4c3CN(C3CCC(=O)NC3=O)C4=O)C2)CCN1c1ccc(Nc2cc(-c3ccnc(N4CCn5c(cc6c5CC(C)(C)C6)C4=O)c3CO)cn(C)c2=O)nc1` (some centres unmarked) [Compound 29] showed a DC50 of 1 to 10 nM.
`C[C@H]1CN(C(=O)CN2CCN(CCCc3cccc4c3CN(C3CCC(=O)NC3=O)C4=O)CC2)CCN1c1ccc(Nc2cc(-c3ccnc(N4CCn5c(cc6c5CC(C)(C)C6)C4=O)c3CO)cn(C)c2=O)nc1` (some centres unmarked) [Compound 30] gave a DC50 of 1 to 10 nM.
